Literature values in patent publication US5998440A, “Azetidine, pyrrolidine and piperidine derivatives” (Merck Sharpe & Dohme Ltd., priority 1995, dated 1999).

Conditions: humans, therapeutic doses

For `CNS(=O)(=O)Cc1ccc2[nH]cc(CCN(C)C)c2c1` [sumatriptan], the adverse cardiovascular events is given as “certain adverse cardiovascular events”.
